Results as given in publication PMC10572522, “A Designed Analog of an Antimicrobial Peptide, Crabrolin, Exhibits Enhanced Anti-Proliferative and In Vivo Antimicrobial Activity” (International Journal of Molecular Sciences, 2023).
Residues, ends and D or L forms follow the SMILES beside them.

Legend:
[1] = system: K. pneumoniae (ATCC 43816); assay: Antimicrobial susceptibility assay (MIC/MBC); assay type: cell-based, Klebsiella pneumoniae; details: for MIC: MHB, 37 °C, 20 h
Protocol: (§1) Six bacteria were tested in this experiment to detect the antimicrobial effects of crabrolin and its derivatives, including S. aureus (NCTC 10788), MRSA (NCTC 12493), E. coli (ATCC 8739), K. pneumoniae (ATCC 43816), E. faecium (NTCC-12697), and P. aeruginosa (ATCC 9027). The tested bacteria were cultured in Mueller Hinton broth medium (MHB) with norfloxacin (20 mg/L) as a positive control. All bacteria were incubated at 37 °C overnight and diluted to 5 × 10^5 CFU/mL before treating with the peptides. Stock solutions of 51,200 µM peptides were prepared in phosphate-buffered saline (PBS) and further diluted by a factor of two to 100 µM. Next, 1 µL of each peptide solution was mixed with 99 µL of bacterial subculture in a 96-well plate, and the plate was incubated at 37 °C for 20 h. After culturing, the absorbance of each well in the 96-well plate was analyzed at 550 nm using a Synergy HT plate reader (BioliseBioTek, Winooski, VT, USA). […] Starting with the MIC value, 10 µL of the solution from each well was dripped onto Mueller Hinton agar (MHA) plates. The plates were cultured at 37 °C for 20 h. After culturing, the lowest concentration with no colony growth was regarded as the MBC.

[2] = system: human glioblastoma astrocytoma U251MG; assay: Anti-proliferative assay (MTT); assay type: cell-based; details: 24 h
Protocol: (§2) The human non-small-cell lung cancer line, H838, the human prostate carcinoma cell line, PC-3, the human glioblastoma astrocytoma, U251MG, the human breast cancer cell line, MCF-7, the human colorectal carcinoma cell line, HCT116, and the human keratinocyte cell line, HaCaT, were used to detect the anti-proliferative effects of the crabrolin and its derivatives in vitro. A total of 8000 cells were seeded in each well of a 96-well plate. After the cells had adhered to the wall, the cells were starved for 4 h. After the starvation, the cells were incubated with different concentrations of the drugs, ranging from 100 µM to 1 nM, for 24 h, with 0.1% Triton X-100 used as a positive control. Next, 10 µL of MTT (3-(4,5-dimethylthiazol-2-yl)-2,5-diphenyltetrazolium bromide) solution (5 mg/mL) was added to each well of the 96-well plate. After 2 h of incubation, 100 μL of DMSO-superseded medium was added to each well to dissolve the formazan crystals. Finally, the absorbance was detected using a Synergy HT plate reader at 570 nm.

[3] = system: human breast cancer cell line MCF-7; assay: Anti-proliferative assay (MTT); assay type: cell-based; details: MCF-7, MTT, 24 h
Protocol: as §2

[4] = system: human keratinocyte cell line HaCaT; assay: Anti-proliferative assay (MTT); assay type: cell-based; details: HaCaT (normal keratinocytes), 24 h
Protocol: as §2

[5] = system: human non-small-cell lung cancer line H838; assay: Anti-proliferative assay (MTT); assay type: cell-based; details: 24 h
Protocol: as §2

[6] = system: human colorectal carcinoma cell line HCT-116; assay: Anti-proliferative assay (MTT); assay type: cell-based; details: HCT-116, MTT, 24 h
Protocol: as §2

[7] = system: human prostate carcinoma cell line PC-3; assay: Anti-proliferative assay (MTT); assay type: cell-based; details: PC3, MTT, 24 h
Protocol: as §2

[8] = system: MRSA (NCTC 12493) biofilm; assay type: cell-based, methicillin-resistant Staphylococcus aureus; details: for MBIC: biofilm inhibitory rate more than 90%; for MBEC: eradication rate greater than 99.9%
Protocol: (§3) To measure the antibiofilm activity of crabrolin and its derivatives, four drug-resistant biofilm-forming strains, MRSA (NCTC 12493), K. pneumoniae (ATCC 43816), E. faecium (NTCC-12697), and P. aeruginosa (ATCC 9027), were used in this assay. Tryptic soy broth (TSB) (for the Gram-positive bacteria) and Luria–Bertani broth (LB) (for the Gram-negative bacteria) were used to culture the bacteria.
(§4) The mass of the biofilm in this assay was detected by the crystal violet staining method. First, 100 μL of 5 × 10^5 CFU/mL bacteria was incubated with 1 μL of different peptide solutions (ranging from 51200 μM to 100 μM) for 24 h at 37 °C with 200 rpm shaking. After the biofilm formation, 100 μL of PBS was used to rinse the biofilm twice. Next, 100 µL of methanol was added to fix the biofilm, and the biofilm was then dried. Thereafter, 100 μL of 0.1% crystal violet was added and left to stain for 15 min, and then the excess crystal violet was further rinsed by PBS. After the plate had air-dried, 30% glacial acetic acid was added to each well of the plate, and the plate was shaken for 15 min before the optical density (OD) value was measured at 595 nm using a Synergy HT plate reader. The MBIC value refers to the minimum concentration at which the biofilm inhibitory rate was more than 90%.
(§5) Different from measuring the MBIC value, to determine the MBEC value, 100 μL of the bacteria was first added to 96-well plates. After the biofilm was formed, the biofilm was rinsed with PBS twice to remove the planktonic cells, and then different concentrations of the drugs were added to the biofilm (the same as the MBIC assay). The mixture was incubated at 37 °C with shaking at 200 rpm. After 24 h of incubation, the mass of the biofilm was measured in the same way as the MBIC value, and the minimum concentration at which the eradication rate was greater than 99.9% was considered to be the MBEC value.

E. faecium (NTCC 12697) = assay: Antimicrobial susceptibility assay (MIC/MBC); assay type: cell-based, Enterococcus faecium; details: for MIC: MHB, 37 °C, 20 h
Protocol: as §1

[9] = system: K. pneumoniae (ATCC 43816) biofilm; assay type: cell-based, Klebsiella pneumoniae; details: for MBIC: biofilm inhibitory rate more than 90%; for MBEC: eradication rate greater than 99.9%
Protocol: as §3, §4, §5

[10] = system: E. faecium (NTCC12697) biofilm; assay type: cell-based, Enterococcus faecium; details: for MBIC: biofilm inhibitory rate more than 90%; for MBEC: eradication rate greater than 99.9%
Protocol: as §3, §4, §5

S. aureus (NCTC 10788) = assay: Antimicrobial susceptibility assay (MIC/MBC); assay type: cell-based, Staphylococcus aureus; details: for MIC: MHB, 37 °C, 20 h
Protocol: as §1

Hemolysis assay = assay type: cell-based, horse; details: horse, erythrocytes (2% suspension); at the peptide's maximum MIC; relative to Triton X-100; read-out: Hemolysis under the Maximum MIC
Protocol: (§6) According to the procedures described in detail in a previous study, the debris and impurities of the erythrocytes were washed with PBS in advance to yield 2% of the erythrocyte suspension, and the drug concentration was diluted from 1024 µM to 2 µM with PBS [53]. The same amounts of the drug and the erythrocyte suspension were mixed and cultured at 37 °C for 2 h; 0.1% Triton X-100 (Sigma-Aldrich, St. Louis, MO, USA) was prepared as a positive control, and PBS was prepared as a negative control. After the incubation, the supernatant was transferred to a 96-well plate and then detected using a Synergy HT plate reader at 570 nm.

horse erythrocytes = assay: Hemolysis assay; assay type: cell-based; details: for HC10 (10% hemolytic concentration): erythrocytes, 37 °C, 2 h
Protocol: as §6

MRSA (NCTC 12493) = assay: Antimicrobial susceptibility assay (MIC/MBC); assay type: cell-based, methicillin-resistant Staphylococcus aureus; details: for MIC: MHB, 37 °C, 20 h
Protocol: as §1

[11] = system: P. aeruginosa (ATCC 9027); assay: Antimicrobial susceptibility assay (MIC/MBC); assay type: cell-based, Pseudomonas aeruginosa; details: for MIC: MHB, 37 °C, 20 h
Protocol: as §1

E. coli (ATCC 8739) = assay: Antimicrobial susceptibility assay (MIC/MBC); assay type: cell-based, Escherichia coli; details: for MIC: MHB, 37 °C, 20 h
Protocol: as §1

[12] = system: P. aeruginosa (ATCC 9027) biofilm; assay type: cell-based, Pseudomonas aeruginosa; details: for MBIC: biofilm inhibitory rate more than 90%; for MBEC: eradication rate greater than 99.9%
Protocol: as §3, §4, §5

CC[C@H](C)[C@H](NC(=O)[C@H](CCCNC(=N)N)NC(=O)[C@@H]1CCCN1C(=O)[C@H](CC(C)C)NC(=O)[C@@H](N)CCCNC(=N)N)C(=O)N[C@@H](CC(C)C)C(=O)N[C@@H](CCCNC(=N)N)C(=O)N[C@@H](CCCCN)C(=O)N[C@H](C(=O)N[C@H](C(=O)N[C@@H](CCCNC(=N)N)C(=O)N[C@@H](CCCNC(=N)N)C(=O)N[C@@H](CC(C)C)C(N)=O)C(C)C)[C@@H](C)CC [Crabrolin-AR, RLPRILRKIVRRL-NH2] (H-RLPRILRKIVRRL-NH2) showed an MBC [1] of 16 µM, an MIC [1] of 8 µM and an IC50 [2] of 52 µM. For the same molecule, the IC50 [3] was 32.5 µM, the IC50 [4] was 34.9 µM and the IC50 [5] was 41.3 µM. It also gave an IC50 [6] of 29.9 µM, an IC50 [7] of 28.8 µM and an MBIC [8] of 8 µM. For the same molecule, the MBEC [8] was 512 µM, the MBC (E. faecium (NTCC 12697)) was 32 µM and the MIC (E. faecium (NTCC 12697)) was 16 µM. For the same molecule, the MBIC [9] was 8 µM, the MBEC [9] was greater than 512 µM and the MBIC [10] was 64 µM. The MBEC [10] was greater than 512 µM, the MBC (S. aureus (NCTC 10788)) was 8 µM and the MIC (S. aureus (NCTC 10788)) was 4 µM. For the same molecule, the hemolysis at 2 h (Hemolysis assay) was 6.63%, the “HC10 (10% hemolytic concentration)” value (horse erythrocytes) was 59.049 µM and the MBC (MRSA (NCTC 12493)) was 8 µM. It also gave an MIC (MRSA (NCTC 12493)) of 4 µM, an MBC [11] of 16 µM and an MIC [11] of 4 µM. It also gave an MBC (E. coli (ATCC 8739)) of 4 µM, an MIC (E. coli (ATCC 8739)) of 2 µM and an MBIC [12] of 16 µM. For the same molecule, the MBEC [12] was greater than 512 µM.
CC[C@H](C)[C@H](NC(=O)[C@H](CCCNC(=N)N)NC(=O)[C@@H]1CCCN1C(=O)[C@H](CC(C)C)NC(=O)[C@@H](N)CCCNC(=N)N)C(=O)N[C@@H](CC(C)C)C(=O)N[C@@H](CCCNC(=N)N)C(=O)N[C@@H](CCCCN)C(=O)N[C@H](C(=O)N[C@H](C(=O)N[C@@H](CCCNC(=N)N)C(=O)N[C@@H](C)C(=O)N[C@@H](CC(C)C)C(N)=O)C(C)C)[C@@H](C)CC [Crabrolin-FR, RLPRILRKIVRAL-NH2] (H-RLPRILRKIVRAL-NH2) gave an MBC [1] of 16 µM, an MIC [1] of 8 µM and an IC50 [2] of 62.2 µM. The IC50 [3] was 33.9 µM, the IC50 [4] was 30.4 µM and the IC50 [5] was 31.5 µM. It also gave an IC50 [6] of 30.3 µM, an IC50 [7] of 15.9 µM and an MBIC [8] of 8 µM. The MBEC [8] was 256 µM, the MBC (E. faecium (NTCC 12697)) was 16 µM and the MIC (E. faecium (NTCC 12697)) was 8 µM. It also gave an MBIC [9] of 8 µM, an MBEC [9] of 512 µM and an MBIC [10] of 32 µM. It also gave an MBEC [10] greater than 512 µM, an MBC (S. aureus (NCTC 10788)) of 2 µM and an MIC (S. aureus (NCTC 10788)) of 2 µM. The hemolysis at 2 h (Hemolysis assay) was 5.67%, the “HC10 (10% hemolytic concentration)” value (horse erythrocytes) was 18.082 µM and the MBC (MRSA (NCTC 12493)) was 4 µM. It also gave an MIC (MRSA (NCTC 12493)) of 4 µM, an MBC [11] of 16 µM and an MIC [11] of 4 µM. For the same molecule, the MBC (E. coli (ATCC 8739)) was 4 µM, the MIC (E. coli (ATCC 8739)) was 2 µM and the MBIC [12] was 8 µM. It also gave an MBEC [12] greater than 512 µM.
Work on CC[C@H](C)[C@H](NC(=O)[C@H](CCCNC(=N)N)NC(=O)[C@H](CCCNC(=N)N)NC(=O)[C@H](CC(C)C)NC(=O)[C@@H](N)CCCNC(=N)N)C(=O)N[C@@H](CC(C)C)C(=O)N[C@@H](CCCNC(=N)N)C(=O)N[C@@H](CCCCN)C(=O)N[C@H](C(=O)N[C@H](C(=O)N[C@@H](CCCNC(=N)N)C(=O)N[C@@H](CCCNC(=N)N)C(=O)N[C@@H](CC(C)C)C(N)=O)C(C)C)[C@@H](C)CC [Crabrolin-PR, RLRRILRKIVRRL-NH2] (H-RLRRILRKIVRRL-NH2) yielded an MBC [1] of 16 µM, an MIC [1] of 8 µM and an IC50 [2] of 17.7 µM. It also gave an IC50 [3] of 12.3 µM, an IC50 [4] of 29.5 µM and an IC50 [5] of 32.3 µM. It also gave an IC50 [6] of 16.3 µM, an IC50 [7] of 22.4 µM and an MBIC [8] of 8 µM. The MBEC [8] was 512 µM, the MBC (E. faecium (NTCC 12697)) was 16 µM and the MIC (E. faecium (NTCC 12697)) was 8 µM. For the same molecule, the MBIC [9] was 8 µM, the MBEC [9] was greater than 512 µM and the MBIC [10] was 32 µM. The MBEC [10] was greater than 512 µM, the MBC (S. aureus (NCTC 10788)) was 4 µM and the MIC (S. aureus (NCTC 10788)) was 2 µM. The hemolysis at 2 h (Hemolysis assay) was 3.09%, the “HC10 (10% hemolytic concentration)” value (horse erythrocytes) was 5019 µM and the “Hemolytic activity at the measured maximum concentration” value (horse erythrocytes; maximum concentration (range 1 to 512 μM)) was “less than 1%”. For the same molecule, the MBC (MRSA (NCTC 12493)) was 8 µM, the MIC (MRSA (NCTC 12493)) was 4 µM and the MBC [11] was 16 µM. The MIC [11] was 4 µM, the MBC (E. coli (ATCC 8739)) was 8 µM and the MIC (E. coli (ATCC 8739)) was 2 µM. The MBIC [12] was 8 µM and the MBEC [12] was greater than 512 µM.
